According to patent publication US10323038B2, “Pyrazole compounds and methods of making and using same” (ABIDE THERAPEUTICS, INC., priority 2015, dated 2019):
pIC50: −log10 of the molar value.

Columns and labels:
[1] = target: FAAH (Mus musculus (Mouse), UniProt O08914); experiment: In vitro competitive activity-based protein profiling, FAAH (mouse); type: biochemical; settings: for inhibition at 1 µM: read-out: FAAH % inh. 1 μM (mouse)
Outline: (§1)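 Competitive ABPP; proteome 1.0 mg/mL total protein; mouse = brain membranes or cell lysates, human = prefrontal cortex or cell membranes. Inhibitor preinc 30 min, 37° C; FP-Rh/HT-01 (50 μM DMSO stock) 30 min, 37° C; SDS-PAGE, in-gel fluorescence of MAGL/FAAH bands.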

[2] = target: MAGL (Mus musculus (Mouse), UniProt O35678); experiment: In vitro competitive activity-based protein profiling, MAGL (mouse); type: biochemical; settings: for inhibition at 1 µM: read-out: MAGL % inh. 1 μM (mouse)
Outline: as §1

MAGL, sequence (O35678 whole entry): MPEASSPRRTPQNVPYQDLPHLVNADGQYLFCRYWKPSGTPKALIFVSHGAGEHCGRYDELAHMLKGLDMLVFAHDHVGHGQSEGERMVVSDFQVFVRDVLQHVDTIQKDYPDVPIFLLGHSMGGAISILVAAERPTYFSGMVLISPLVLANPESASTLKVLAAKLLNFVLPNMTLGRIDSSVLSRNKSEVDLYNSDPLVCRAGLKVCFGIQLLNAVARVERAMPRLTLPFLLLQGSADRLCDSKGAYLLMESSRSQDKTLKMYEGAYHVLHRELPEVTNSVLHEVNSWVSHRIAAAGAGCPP
FAAH, sequence (O08914 whole entry): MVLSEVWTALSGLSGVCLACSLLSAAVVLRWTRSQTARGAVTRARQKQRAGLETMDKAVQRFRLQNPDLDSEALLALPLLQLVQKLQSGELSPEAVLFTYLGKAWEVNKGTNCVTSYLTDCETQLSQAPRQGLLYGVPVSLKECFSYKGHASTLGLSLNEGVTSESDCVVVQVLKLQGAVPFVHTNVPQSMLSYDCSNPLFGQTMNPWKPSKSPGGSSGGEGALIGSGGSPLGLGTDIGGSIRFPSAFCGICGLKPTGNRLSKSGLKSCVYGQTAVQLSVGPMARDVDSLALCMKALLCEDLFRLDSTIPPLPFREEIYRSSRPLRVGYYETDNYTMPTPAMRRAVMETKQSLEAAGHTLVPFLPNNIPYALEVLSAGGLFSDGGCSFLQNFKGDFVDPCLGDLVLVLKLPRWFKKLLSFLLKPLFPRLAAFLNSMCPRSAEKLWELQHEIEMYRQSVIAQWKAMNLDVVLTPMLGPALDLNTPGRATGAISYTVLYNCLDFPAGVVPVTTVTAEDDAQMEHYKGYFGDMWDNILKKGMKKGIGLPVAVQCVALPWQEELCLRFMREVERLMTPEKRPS

SMILES	pIC50 [1]	inhibition at 1 µM [1]	pIC50 [2]	inhibition at 1 µM [2]
CC(=O)N(C)c1cnn(C(=O)N2C[C@H]3C[C@@H](N(C)Cc4cc(N5C6CCC5COC6)cc(C(F)(F)F)c4)C[C@H]3C2)c1 [Example 151, N-(1-(cis-5-((3-(3-oxa-8-azabicyclo[3.2.1]octan-8-yl)-5-(trifluoromethyl)benzyl)(methyl)amino)octahydrocyclopenta[c]pyrrole-2-carbonyl)-1H-pyrazol-4-yl)-N-methylacetamide]	6.00 to 7.00	≥ 75%	6.00 to 7.00	≥ 75%
CC(=O)N(C)c1cnn(C(=O)N2CCN(Cc3cccc(F)c3)CC2)c1 [Example 205, N-(1-(4-(3-fluorobenzyl)piperazine-1-carbonyl)-1H-pyrazol-4-yl)-N-methylacetamide]	6.00 to 7.00	≥ 75%	6.00 to 7.00	≥ 75%
CC(=O)N(C)c1cnn(C(=O)N2CC3CN(Cc4ccc(OCC(=O)N5CCCC5)cc4Cl)CC3C2)c1 (centres unmarked) [Example 189, N-(1-(5-(2-chloro-4-(2-oxo-2-(pyrrolidin-1-yl)ethoxy)benzyl)octahydropyrrolo[3,4-c]pyrrole-2-carbonyl)-1H-pyrazol-4-yl)-N-methylacetamide]	6.00 to 7.00	0 to 25%	5.00 to 6.00	≥ 75%
C#Cc1ccc(CN2CCN(C(=O)n3cc(N(C)C(C)=O)cn3)CC2)cc1 [Example 317, N-(1-(4-(4-ethynylbenzyl)piperazine-1-carbonyl)-1H-pyrazol-4-yl)-N-methylacetamide]		≥ 75%		≥ 75%
CC(=O)N(C)c1cnn(C(=O)N2CC3CN(Cc4ccc(Cl)cc4Cl)CC3C2)c1 (centres unmarked) [Example 113, N-(1-(5-(2,4-dichlorobenzyl)octahydropyrrolo[3,4-c]pyrrole-2-carbonyl)-1H-pyrazol-4-yl)-N-methylacetamide]	≥ 7.00	≥ 75%	≥ 7.00	≥ 75%
CC(=O)N(C)c1cnn(C(=O)N2CC3CN(Cc4ccc(Oc5ccccc5)cc4)CC3C2)c1 (centres unmarked) [Example 241, N-methyl-N-(1-(5-(4-phenoxybenzyl)octahydropyrrolo[3,4-c]pyrrole-2-carbonyl)-1H-pyrazol-4-yl)acetamide]	≥ 7.00	≥ 75%	≥ 7.00	≥ 75%
CC(=O)N(C)c1cnn(C(=O)N2C[C@H]3C[C@@H](N(C)Cc4ccc(N5CCCC5)c(C(F)(F)F)c4)C[C@H]3C2)c1 [Example 153, N-methyl-N-(1-(cis-5-(methyl(4-(pyrrolidin-1-yl)-3-(trifluoromethyl)benzyl)amino)octahydrocyclopenta[c]pyrrole-2-carbonyl)-1H-pyrazol-4-yl)acetamide]		≥ 75%		≥ 75%
CC(=O)N(C)c1cnn(C(=O)N2CC3CN(Cc4cc(Cl)cc(N5CCCC5)c4)CC3C2)c1 (centres unmarked) [Example 110, N-(1-(5-(3-chloro-5-(pyrrolidin-1-yl)benzyl)octahydropyrrolo[3,4-c]pyrrole-2-carbonyl)-1H-pyrazol-4-yl)-N-methylacetamide]	≥ 7.00	≥ 75%	≥ 7.00	≥ 75%
CC(=O)N(C)c1cnn(C(=O)N2CC3CN(Cc4c(Cl)cccc4Cl)CC3C2)c1 (centres unmarked) [Example 111, N-(1-(5-(2,6-dichlorobenzyl)octahydropyrrolo[3,4-c]pyrrole-2-carbonyl)-1H-pyrazol-4-yl)-N-methylacetamide]	≥ 7.00	≥ 75%	≥ 7.00	≥ 75%
CC(=O)N(C)c1cnn(C(=O)N2CC3CN(Cc4ccc(Oc5cncnc5)cc4C(F)(F)F)CC3C2)c1 (centres unmarked) [Example 265, N-methyl-N-(1-(5-(4-(pyrimidin-5-yloxy)-2-(trifluoromethyl)benzyl)octahydropyrrolo [3,4-c]pyrrole-2-carbonyl)-1H-pyrazol-4-yl)acetamide]		≥ 75%		≥ 75%
CC(=O)N(C)c1cnn(C(=O)N2CCC3(CCN(Cc4ccc(N5CCCC5)c(C(F)(F)F)c4)C3)C2)c1 (centres unmarked) [Example 69, N-methyl-N-(1-(7-(4-(pyrrolidin-1-yl)-3-(trifluoromethyl)benzyl)-2,7-diazaspiro[4.4]nonane-2-carbonyl)-1H-pyrazol-4-yl)acetamide]		≥ 75%		≥ 75%
Cc1noc(-c2ccc(CN3CCN(C(=O)n4cc(NS(C)(=O)=O)cn4)CC3)c(C(F)(F)F)c2)n1 [Example 307, N-(1-(4-(4-(3-methyl-1,2,4-oxadiazol-5-yl)-2-(trifluoromethyl)benzyl)piperazine-1-carbonyl)-1H-pyrazol-4-yl)methanesulfonamide]		≥ 75%		25 to 50%
CC(=O)N(C)c1cnn(C(=O)N2CC3CN(Cc4cccc(OCc5ccc(Cl)cc5)c4)CC3C2)c1 (centres unmarked) [Example 249, N-(1-(5-(3-((4-chlorobenzyl)oxy)benzyl)octahydropyrrolo[3,4-c]pyrrole-2-carbonyl)-1H-pyrazol-4-yl)-N-methylacetamide]		≥ 75%		≥ 75%
CC(=O)N(C)c1cnn(C(=O)N2CC3CN(Cc4ccc(Cl)c(C(F)(F)F)c4)CC3C2)c1 (centres unmarked) [Example 98, N-(1-(5-(4-chloro-3-(trifluoromethyl)benzyl)octahydropyrrolo[3,4-c]pyrrole-2-carbonyl)-1H-pyrazol-4-yl)-N-methylacetamide]	≥ 7.00	≥ 75%	≥ 7.00	≥ 75%
CC(=O)N(C)c1cnn(C(=O)N2CCC3(CC2)CN(Cc2cccc(Oc4ccccc4)c2)C3)c1 [Example 235, N-methyl-N-(1-(2-(3-phenoxybenzyl)-2,7-diazaspiro[3.5]nonane-7-carbonyl)-1H-pyrazol-4-yl)acetamide]	≥ 7.00	≥ 75%	≥ 7.00	≥ 75%
CC(=O)N(C)c1cnn(C(=O)N2C[C@H]3C[C@@H](N(C)Cc4ccc(N5C6CCC5COC6)c(C(F)(F)F)c4)C[C@H]3C2)c1 [Example 150, N-(1-(cis-5-((4-(3-oxa-8-azabicyclo[3.2.1]octan-8-yl)-3-(trifluoromethyl)benzyl)(methyl)amino)octahydrocyclopenta[c]pyrrole-2-carbonyl)-1H-pyrazol-4-yl)-N-methylacetamide]	≥ 7.00	≥ 75%	6.00 to 7.00	≥ 75%
CC(=O)N(C)c1cnn(C(=O)N2CC3CN(Cc4ccc(N5CCOCC5)cc4C(F)(F)F)CC3C2)c1 (centres unmarked) [Example 131, N-methyl-N-(1-(5-(4-morpholino-2-(trifluoromethyl)benzyl)octahydropyrrolo[3,4-c]pyrrole-2-carbonyl)-1H-pyrazol-4-yl)acetamide]	≥ 7.00	≥ 75%	≥ 7.00	≥ 75%
CC(=O)N(C)c1cnn(C(=O)N2CC3CN(Cc4ccc(C)cc4Cl)CC3C2)c1 (centres unmarked) [Example 115, N-(1-(5-(2-chloro-4-methylbenzyl)octahydropyrrolo[3,4-c]pyrrole-2-carbonyl)-1H-pyrazol-4-yl)-N-methylacetamide]	≥ 7.00	≥ 75%	≥ 7.00	≥ 75%
CC(=O)N(C)c1cnn(C(=O)N2CCC3(CCN(Cc4cc(Cl)ccc4Cl)C3)C2)c1 (single isomer, unassigned) [Example 177, N-(1-(7-(2,5-dichlorobenzyl)-2,7-diazaspiro[4.4]nonane-2-carbonyl)-1H-pyrazol-4-yl)-N-methylacetamide]	≥ 7.00		≥ 7.00	
CS(=O)(=O)Nc1cnn(C(=O)N2CCC3(CCN(Cc4cc(Cl)cc(C(F)(F)F)c4)C3)C2)c1 (centres unmarked) [Example 286, N-(1-(7-(3-chloro-5-(trifluoromethyl)benzyl)-2,7-diazaspiro[4.4]nonane-2-carbonyl)-1H-pyrazol-4-yl)methanesulfonamide]		≥ 75%		25 to 50%
CC(=O)N(C)c1cnn(C(=O)N2CC3(CCN(Cc4ccc(C)cc4)CC3)C2)c1 [Example 87, N-methyl-N-(1-(7-(4-methylbenzyl)-2,7-diazaspiro[3.5]nonane-2-carbonyl)-1H-pyrazol-4-yl)acetamide]		25 to 50%		50 to 75%
CC(=O)Nc1cnn(C(=O)N2CCN(Cc3ccc(C(F)(F)F)cc3N3C4CCC3COC4)CC2)c1 [Example 228, N-(1-(4-(2-(3-oxa-8-azabicyclo[3.2.1]octan-8-yl)-4-(trifluoromethyl)benzyl)piperazine-1-carbonyl)-1H-pyrazol-4-yl)acetamide]	5.00 to 6.00	0 to 25%	6.00 to 7.00	≥ 75%
CC(=O)N(C)c1cnn(C(=O)N2CCN(Cc3ccccc3Cl)CC2)c1 [Example 192, N-(1-(4-(2-chlorobenzyl)piperazine-1-carbonyl)-1H-pyrazol-4-yl)-N-methylacetamide]	6.00 to 7.00	≥ 75%	6.00 to 7.00	≥ 75%
CC(=O)N(C)c1cnn(C(=O)N2CCC3(CC2)CN(Cc2cccc(F)c2)C3)c1 [Example 35, N-(1-(2-(3-fluorobenzyl)-2,7-diazaspiro[3.5]nonane-7-carbonyl)-1H-pyrazol-4-yl)-N-methylacetamide]		≥ 75%		≥ 75%
CS(=O)(=O)Nc1cnn(C(=O)N2CCN(Cc3ccc(-c4ncco4)cc3C(F)(F)F)CC2)c1 [Example 303, N-(1-(4-(4-(oxazol-2-yl)-2-(trifluoromethyl)benzy)piperazine-1-carbonyl)-1H-pyrazol-4-yl)methanesulfonamide]	5.00 to 6.00	≥ 75%	≥ 7.00	50 to 75%
